# Measured values as given in patent US11021481B2, “Substituted isoindolin-1-ones and 2,3-dihydro-1h-pyrrolo[3,4-c]pyridin-1-ones as HPK1 antagonists” (Nimbus Saturn, Inc., priority 2019, dated 2021).
# Counter-ions that a name gives are not always drawn.
# Biological target: HPK1 (Homo sapiens (Human), UniProt Q92918)
# Test: HPK1 biochemical enzyme assay (microfluidic mobility shift assay)
# Details: 1.5 nM HPK1, ATP 1 mM final, 30 min preincubation, 60 min at RT, Caliper EZ Reader; read-out: HPK1 1000UMATP caliper IC50
# Summary of the method: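 Mobility shift readout of HPK1 activity after a 60 min RT reaction with 1 mM ATP, 1 μM substrate and 5 mM MgCl2. Enzyme/substrate mix was first exposed to compounds for 30 min, using ten-point curves topping at 3 μM final.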
# Chain of HPK1 (Q92918 whole entry): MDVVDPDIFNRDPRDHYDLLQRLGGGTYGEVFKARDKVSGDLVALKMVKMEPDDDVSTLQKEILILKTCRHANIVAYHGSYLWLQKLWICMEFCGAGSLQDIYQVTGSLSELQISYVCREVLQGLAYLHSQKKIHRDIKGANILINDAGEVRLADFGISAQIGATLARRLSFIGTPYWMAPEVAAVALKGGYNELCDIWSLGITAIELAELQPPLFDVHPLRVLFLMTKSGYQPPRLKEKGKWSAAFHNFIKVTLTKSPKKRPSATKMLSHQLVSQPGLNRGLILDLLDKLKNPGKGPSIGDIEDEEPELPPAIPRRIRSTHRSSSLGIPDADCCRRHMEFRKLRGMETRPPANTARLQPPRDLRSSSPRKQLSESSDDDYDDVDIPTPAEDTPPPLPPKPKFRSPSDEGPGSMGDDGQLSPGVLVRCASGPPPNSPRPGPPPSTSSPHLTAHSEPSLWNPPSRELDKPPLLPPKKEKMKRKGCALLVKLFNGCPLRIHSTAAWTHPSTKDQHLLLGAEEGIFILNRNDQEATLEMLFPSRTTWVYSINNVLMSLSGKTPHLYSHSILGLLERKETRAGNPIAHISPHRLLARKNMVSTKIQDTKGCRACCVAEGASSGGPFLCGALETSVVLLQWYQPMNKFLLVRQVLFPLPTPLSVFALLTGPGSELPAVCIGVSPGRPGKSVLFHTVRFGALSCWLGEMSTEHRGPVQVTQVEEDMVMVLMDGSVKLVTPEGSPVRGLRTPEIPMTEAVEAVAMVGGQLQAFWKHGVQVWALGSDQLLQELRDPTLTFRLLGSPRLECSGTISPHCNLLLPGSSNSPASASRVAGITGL
row,SMILES,IC50
1,"O=C1NCc2c(-c3cnc4cc(C(F)F)ccn34)ccc(Nc3ccc(N4CCC(O)CC4)cn3)c21 [I-194, 4-[7-(difluorometh-yl)imidazo[1,2-a]pyridin-3-yl]-7-[[5-(4-hydroxy-1-piperidyl)-2-pyripyl]amino] isoindolin-1-one]",< 100 nM
2,"O=C1NCc2c(-c3cnc4cccnn34)ccc(Nc3ccc(N4CCNCC4)cn3)c21 [I-82, 4-imidazo[1,2-b]pyridazin-3-yl-7-[(5-piperazin-1-yl-2-pyridyl)amino] isoindolin-1-one]",< 100 nM
3,"CN1CCN(CC2(O)CCCN(c3ccc(Nc4ccc(-c5cnc6cc(F)ccn56)c5c4C(=O)NC5)nc3)C2)CC1 (stereo not drawn) [I-388, 4-(7-fluoroimidazo [1,2-a]pyridin-3-yl)-7-((5-(3-hydroxy-3-((4-methylpiperazin-1-yl)methyl)piper-idin-1-yl)pyridin-2-yl)amino)isoin-dolin-1-one]",< 100 nM
4,"CN(C)Cc1nc(Nc2ccc(-c3cnc4cnccn34)c3c2C(=O)NC3)ccc1[C@@H]1CCOC1 [I-714, (S)-7-((6-((dimethylamino)-methyl)-5-(tetrahydrofuran-3-yl)pyridin-2-yl)amino)-4-(imidazo[1,2-a]pyrazin-3-yl)isoindolin-1-one]",< 100 nM
5,Cc1ccn2c(-c3ccc(Nc4ccc(C5CCOC5)cn4)c4c3CNC4=O)cnc2c1 (stereo not drawn) [I-155],< 100 nM
6,"Cc1ccc2c(-c3ccc(Nc4ccc(N5CCN(C)CC5)cn4)c4c3CNC4=O)cnn2c1 [I-65, 7-[[5-(4-methylpiperazin-1-yl)-2-pyridyl]amino]-4-(6-methylpyrazolo [1,5-a]pyridin-3-yl)isoindolin-1-one]",< 100 nM
7,O=C1NCc2c(-c3cnc4ccc(C(F)(F)F)cn34)ccc(Nc3ccc(N4CCC(O)CC4)cn3)c21 [I-132],> 1000 nM
8,"Cc1cnn2c(-c3ccc(Nc4ccc(N5CCC(O)CC5)cn4)c4c3CNC4=O)ccnc12 [I-165, 7-[[5-(4-hydroxy-1-piperidxl)-2-pyridyl]amino]-4-(3-methylpyra-zolo[1,5-a]pyrimidin-7-yl)isoindolin-1-one]",> 1000 nM
9,"CN1CCN(Cc2ccc(Nc3ccc(-c4cnc5c(F)c(C(F)F)ccn45)c4c3C(=O)NC4)nc2)C(C)(C)C1 [I-672, 4-(7-(difluorometh-yl)-8-fluoroimidazo [1,2-a]pyridin-3-yl)-7-((5-((2.2.4-trimethylpiper-azin-1-yl)methyl)pyri-din-2-yl)amino)isoin-dolin-1-one]",< 100 nM
10,"O=C1NCc2c(-c3cnc4cc(F)ccn34)ccc(Nc3ccc([C@H]4CCOC4)c(CN4CC[C@@H](F)C4)n3)c21 (stereo in doubt) [I-741, 4-(7-fluoroimidazo [1,2-a]pyridin-3-yl)-7-((6-(((R)-3-fluoropyrrol-idin-1-yl)methyl)-5-((S)-tetrahydrofur-an-3-yl)pyridin-2-yl)amino)isoin-dolin-1-one]",< 100 nM
11,CN1CCN(c2ccc(Nc3ccc(-c4cnc5n4CCNC5)c4c3C(=O)NC4)nc2)CC1 [I-92],< 100 nM
12,"CN1CCN(CC2(O)CCN(c3ccc(Nc4cnc(-c5cnc6ccccn56)c5c4C(=O)NC5)nc3)CC2)CC1 [I-648, 7-((5-(4-hydroxy-4-((4-methylpiperazin-1-yl)methyl)pip-eridin-1-yl)pyridin-2-yl)amino)-4-(imidazo[1,2-a]pyridin-3-yl)-2,3-dihydro-1H-pyrrolo[3,4-c]pyridin-1-one]",< 100 nM
13,"CN(C)CC1COCCN1c1ccc(Nc2ccc(-c3cnc4cc(F)ccn34)c3c2C(=O)NC3)nc1 (stereo not drawn) [I-517, 7-[ [5-[3-[(dimethylamino)-methyl]mor-pholin-4-yl]-2-pyridyl]amino]-4-(7-fluoroimidazo [1,2-a]pyridin-3-yl)isoindolin-1-one]",< 100 nM
14,"O=C1NCc2c(-c3cnc4cc(F)ccn34)ccc(Nc3ccc([C@@H]4CCOC4)c(CN4CC[C@@H](O)C4)n3)c21 [I-784, 4-(7-fluoroimidazo [1,2-a]pyridin-3-yl)-7-((6-(((R)-3-hydroxypyrroli-din-1-yl)methyl)-5-((S)-tetrahydrofuran-3-yl)pyridin-2-yl)amino)isoin-dolin-1-one]",< 100 nM
15,"CC(C)NCc1nc(Nc2cnc(-c3ccnc4c3ccn4C)c3c2C(=O)NC3)ccc1C1CCOCC1 [I-844, 7-[[6-[(isopropylamino)-methyl]-5-tetrahydropy-ran-4-yl-2-pyridyl]amino]-4-(1-methylpyrrolo [2,3-b]pyridin-4-yl)-2,3-dihydropyrrolo [3,4-c]pyridin-1-one Formic acid salt]",< 100 nM
16,"CN(C)Cc1nc(Nc2ccc(-c3cnc4cc(F)ccn34)c3c2C(=O)NC3)ccc1[C@@H]1CCN(C)C(=O)C1 [I-557, (R)-7-((6-((dimethylamino)-methyl)-5-(1-methyl-2-oxopiperidin-4-yl)pyridin-2-yl)amino)-4-(7-fluoroimidazo [1,2-a]pyridin-3-yl)isoindolin-1-one]",< 100 nM
17,"Cn1ccc2c(-c3ccc(Nc4ccc(N5CCNCC5)cn4)c4c3CNC4=O)cccc21 [I-102, 4-(1-methylindol-4-yl)-7-[(5-piperazin-1-yl-2-pyridyl)amino] isoindolin-1-one]",< 100 nM

row,SMILES,IC50
1,O=C1NCc2c(-c3cnc4n3CCOC4)ccc(Nc3ccc(N4CCC(O)CC4)cn3)c21 [I-143],< 100 nM
2,"O=C1NCc2c(-c3cnc4c(F)cccn34)ccc(Nc3ccc(N4CCC(O)CC4)cn3)c21 [I-130, 4-(8-fluoroimidazo [1,2-a]pyridin-3-yl)-7-[[5-(4-hydroxy-1-piperidyl)-2-pyridyl]amino] isoindolin-1-one]",< 100 nM
3,"Cn1ccc2c(-c3ncc(Nc4cccc(N5C[C@@H](N6CCC6)CC5=O)n4)c4c3CNC4=O)ccnc21 [I-725, (S)-7-((6-(4-(azetidin-1-yl)-2-oxopyrrolidin-1-yl)pyridin-2-yl)amino)-4-(1-methyl-1H-pyrrolo[2,3-b]pyridin-4-yl)-2,3-dihydro-1H-pyrrolo[3,4-c]pyridin-1-one]",< 100 nM
4,"Cn1ccc2c(-c3ncc(Nc4cccc(C5(C)CCNCC5)n4)c4c3CNC4=O)ccnc21 [I-430, 4-(1-methyl-1H-pyrrolo[2,3-b]pyridin-4-yl)-7-((6-(4-methylpiperidin-4-yl)pyridin-2-yl)amino)-2,3-dihydro-1H-pyrrolo[3,4-c]pyridin-1-one]",> 1000 nM
5,"O=C1NCc2c(-c3cnc4cc(F)ccn34)ccc(Nc3ccc(N4CCOCC45CC5)cn3)c21 [I-335, 7-((5-(7-oxa-4-azaspiro[2.5]octan-4-yl)pyridin-2-yl)amino)-4-(7-fluoroimidazo [1,2-a]pyridin-3-yl)isoindolin-1-one]",< 100 nM
6,"CN1CCN(c2ccc(Nc3ccc(-c4ccnc5ccn(C)c45)c4c3C(=O)NC4)nc2)CC1 [I-66, 7-[[5-(4-methylpiperazin-1-yl)-2-pyridyl]amino]-4-(1-methylpyrrolo [3,2-b]pyridin-7-yl)isoindolin-1-one]",100 to 1000 nM
7,"Cc1ccc2ncc(-c3ccc(Nc4ccc(N5CCNCC5)cn4)c4c3CNC4=O)n2c1 [I-86, 4-(6-methylimidazo [1,2-a]pyridin-3-yl)-7-[(5-piperazin-1-yl-2-pyridyl)amino] isoindolin-1-one]",< 100 nM
8,"O=C1NCc2c(-c3cnc4cc(F)ccn34)ccc(Nc3ccc([C@H]4CCOC4)c(CN4CCC[C@@H]4CO)n3)c21 [I-825, 4-(7-fluoroimidazo [1,2-a]pyridin-3-yl)-7-((6-(((R)-2-(hydroxymeth-yl)pyrrolidin-1-yl]methyl)-5-((R)-THF-3-yl)pyridin-2-yl)amino)isoin-dolin-1-one]",< 100 nM
9,"CN1CCOc2c(-c3ccc(Nc4ccc(N5CCNCC5)cn4)c4c3CNC4=O)ccnc21 [I-105, 4-(4-methyl-2,3-dihydropyrido [3,2-b][1.4]oxazin-8-yl)-7-[(5-piperazin-1-yl-2-pyridyl)amino] isoindolin-1-one]",< 100 nM
10,"Cn1ccc2c(-c3ncc(Nc4cccc(N5CCC[C@@H](N)C5)n4)c4c3CNC4=O)ccnc21 [I-231, 7-[[6-[(3R)-3-amino-1-piperidyl]-2-pyridyl]-amino]-4-(1-methylpyrrolo [2,3-b]pyridin-4-yl)-2,3-dihydropyrrolo [3,4-c]pyridin-1-one]",< 100 nM
11,"CC(C)(O)[C@@H]1CCCN(c2ccc(Nc3ccc(-c4cnc5cnccn45)c4c3C(=O)NC4)nc2)C1 [I-311, (R)-7-((5-(3-(2-hydroxypropan-2-yl)piperidin-1-yl)pyridin-2-yl)amino)-4-(imidazo[1,2-a]pyrazin-3-yl)isoindolin-1-one]",< 100 nM
12,"CN(C)Cc1nc(Nc2ccc(-c3cnc4cc(F)ccn34)c3c2C(=O)NC3)ccc1N1CCN(C)C(=O)C1 [I-795, 7-((6-((dimethylamino)-methyl)-5-(4-methyl-3-oxopiperazin-1-yl)pyridin-2-yl)amino)-4-(7-fluoroimidazo [1,2-a]pyridin-3-yl)isoindolin-1-one]",< 100 nM
13,"CN(C)C[C@@H]1CN(c2ccc(Nc3ccc(-c4cnc5cc(Cl)ccn45)c4c3C(=O)NC4)nc2)CCO1 [I-593, (R)-4-(7-chloroimidazo [1,2-a]pyridin-3-yl)-7-((5-(2-((dimethylamino)-methyl)mor-pholino)pyridin-2-yl)amino)isoin-dolin-1-one]",< 100 nM
14,"Cc1nc2ccccn2c1-c1ncc(Nc2ccc(N3CCC(O)CC3)cn2)c2c1CNC2=O [I-248, 7-[[5-(4-hydroxy-1-piperidyl)-2-pyridyl]-amino]-4-(2-methylimidazo [1,2-a]pyridin-3-yl)-2,3-dihydropyrrolo [3,4-c]pyridin-1-one]",> 1000 nM
15,"O=C1NCc2c(-c3cnn4ccccc34)ccc(Nc3ccc(N4CCC(O)CC4)cn3)c21 [I-131, 7-[[5-(4-hydroxy-1-piperidyl)-2-pyridyl]amino]-4-pyrazolo[1,5-a]pyridin-3-yl-isoindolin-1-one]",< 100 nM
16,"O=C1NCc2c(-c3cnn4c3CCCCC4)ccc(Nc3ccc(N4CCC(O)CC4)cn3)c21 [I-283, 7-((5-(4-hydroxy-piperidin-1-yl)pyridin-2-yl)amino)-4-(5,6,7,8-tetrahydro-4H-pyrazolo[1,5-a]azepin-3-yl)isoindolin-1-one]",100 to 1000 nM
